This is an account of results in patent publication US9546367B2, “siRNA compositions and methods for inhibiting gene expression in tumor initiating cells of breast cancer” (priority 2011, dated 2017).

Data set [1] relates to MDAMB231. Nature of the data set: in vitro MSFE with packaged siRNA. The data set is classed as cell-based, human. The following applies: Day 8, p<0.05. The source says:
FIG. 7A, FIG. 7B, and FIG. 7C show confirmation of BCSC target genes and comparison of changes in mammosphere formation efficiency. […] Data analyzed by one-way ANOVA and plotted as mean±SEM for n=6 replicates; *p<0.05;
The siRNA sequences of two candidate genes RPL39 and MLF2 were packaged in nanoliposomes and the effects on MSFE determined in vitro, as described above, using packaged siRNA instead of lentiviral shRNA.

The subject of data set [2] is SUM159 tumor. Nature of the data set: MDS/siRNA by tail vein in SUM159 tumor mice, MSFE of isolated cells. The data set is classed as in vivo, SCID/Beige mice. As to conditions: MDS/siRNA by tail vein injection, cells isolated 3 weeks later. On the procedure: To develop siRNA nanotherapeutics targeting TIC, studies have been conducted to confirm the essential roles of the candidate TIC genes. Exemplary siRNA oligonucleotides specific for STAT3, MFL2, and RPL39L were formulated into nanoliposomes, which were then loaded into porous silicon MSV particles. For in vitro assay, BT549 and SUM159 cells were incubated with MSV/siRNA, and primary and secondary MSFE was measured. […] For in vivo assessment, SCID/Beige mice were inoculated with SUM159 tumor, and treated with MDS/siRNA delivered by tail vein injection. Cells were then isolated from tumor mice 3 weeks later, and MSFE was measured. […] These studies indicate that 1) MDS/siRNA could successfully be delivered to tumor tissues effectively in vivo, 2) uptake of MDS/siRNA by TIC was efficient, and 3) MFL2 and RPL39L were essential genes for TIC.

Data set [3] concerns MDAMB231 tumor xenografts. Briefly: long-term in vivo siRNA treatment of MDAMB231 xenografts. The arrangement: species or system SCID-Beige mice. The following applies: p<0.05; for median survival: siRNA with chemotherapy (docetaxel) over chemotherapy alone. On the procedure:
FIG. 8A, FIG. 8B, and […] show long-term, in vivo treatment in siRNA MDAMB231 xenografts. Triple-negative breast cancer cell line, MDAMB231 was injected into the mammary fat pad of SCID beige mice (n=9). These tumors were randomized into six groups: vehicle+scrambled siRNA, vehicle+RPL39 siRNA, vehicle 4 MLF2 siRNA, docetaxel (20 mg/kg, i.p.)+scrambled siRNA, docetaxel (20 mg/kg, i.p.)+RPL39 siRNA, docetaxel (20 mg/kg, i.p.)+MLF2 siRNA. Tumor volume was measured twice weekly and reported as tumor volume fold-change over time.
Long-term in vivo treatment efficacy studies: three million cells MDAMB231 cancer cells, which grow primary as well as metastatic tumors, were injected in the mammary fat pad of SCID-Beige mice and allowed them to grow to 150-300 mm^3 tumors, and randomized them into 6 groups: (1) vehicle+scrambled siRNA. (2) vehicle+MLF2 siRNA. (3) vehicle+RPL39 siRNA, (4) docetaxel (20 mg/kg)+scrambled siRNA, (5) docetaxel (20 mg/kg)+MLF2 siRNA, and (6) docetaxel (20 mg/kg)+RPL39 siRNA. Each injection was loaded with 15 μg of siRNA per animal. These groups received three cycles of treatment every 14 days apart starting at Day 0, and cationic liposome packaged siRNA was administered through tail vein injection thrice weekly.
In the shRNA knockdown experiments, the mean and standard deviation of all measurements from every replicated experiment of each plate were estimated. The Z-score was calculated by subtracting […] and dividing the difference by standard deviation. […] Different treatment groups were compared by one-way ANOVA to determine statistical significance in the confirmatory shRNA, nanoliposome siRNA, and tumor volume fold-change experiments. This was followed by Tukey analysis for a pairwise comparison of the different treatment groups. In the tumor recurrence studies, events were defined as first appearance of tumor >50 mm^3 after completion of treatment. Time to recurrence was derived by the Kaplan-Meier method, with differences compared using the generalized Mann-Whitney-Wilcoxon rank-sum test.

Data set [4] deals with eNOS. Nature of the data set: Western blot of nitric oxide synthases after siRNA knockdown. The data set is classed as cell-based, human. As to conditions: three triple-negative cell lines treated in vitro with siRNA. As to the method:
(§1) In order to confirm the pathways involved in BCSC targeting, western blot analysis was conducted with siRNA knockdown and overexpression of RPL39 and MLF2 in three breast cancer cell lines (SUM159, BT549 and MDAMB231). Briefly, 30 μg of whole cell extracts were quantified and run on a 4-20% gel for 1 hr, and transferred onto nitrocellulose membranes. The primary antibodies were incubated overnight at the following dilutions eNOS (1:500), nNOS (1:500), and iNOS (1:1000) (Millipore, Bellerica, Mass., USA) followed by one-hour secondary antibody incubation, and development using chemiluminescence.
A general note: In western blotting, separated proteins are transferred to a membrane and probed.

The test system of data set [5] is iNOS. The data set is described as above. The data set is classed as cell-based, human. As to conditions: three triple-negative cell lines (SUM159, BT549, MDAMB231) treated in vitro with siRNA. As to the method:
as §1

The test system of data set [6] is nNOS. The data set is described as above. The data set is classed as cell-based, human. As to conditions: three triple-negative cell lines treated in vitro with siRNA. On the procedure:
as §1

[7] abbreviates: siRNA alone (15 μg per injection) vs vehicle treated groups.
Setting [8] is: siRNA in combination with docetaxel (20 mg/kg).

Consider “MLF2 siRNA: siRNA against myeloid leukemia factor 2; sense SEQ ID NO: 3 CCCTGATGGATCCCTTTGCTAT, antisense SEQ ID NO: 19 ATAGCAAAGGGATCCATCAGGA (packaged in nanoliposomes, chemistry not given here, further chemistry not given here)”, for which, in data set [1], the “secondary MSFE” value is listed as “significantly reduced”. For the same substance, in data set [2], the “MSFE of cells isolated from tumor mice” value is given as “Dramatic reduction”. Besides, the tumor volume result was “Significant reduction” in data set [3] (setting [7]) and “significantly reduced” in data set [3] (setting [8]). Moreover, in data set [3], the median survival result is “significantly prolonged”. The eNOS result in data set [4] is “decrease”. In addition, the iNOS signaling result in data set [5] is recorded as “clear reduction”. Besides, the nNOS result in data set [6] was “no changes”.

In the case of “RPL39 siRNA: siRNA against ribosomal protein L39-like; sense SEQ ID NO: 15 ACGATTCCTGGCCAAGAAACAA, antisense SEQ ID NO: 31 TTGTTTCTTGGCCAGGAATCGC (listed as DNA, chemistry not fully specified)”, the “secondary MSFE” value in data set [1] is on record as “significantly reduced”. Besides, the “MSFE of cells isolated from tumor mice” value in data set [2] is “Dramatic reduction”. The figures for the tumor volume result in data set [3] (setting [7]) and in data set [3] (setting [8]) were “Significant reduction” and “significantly reduced”, respectively. Further, the median survival result in data set [3] is listed as “significantly prolonged”. Also, the eNOS result in data set [4] is recorded as “decrease”. For the same substance, in data set [5], the iNOS signaling entry is “clear reduction”. Moreover, in data set [6], the nNOS entry is on record as “no changes”.
